50 compounds from PubChem BioAssay AID179 (DTP/NCI, 2004) can be followed below.

Each structure is given as a SMILES string. pEC50, pIC50: −log10 of the molar value. Where “and” joins values, the source holds several entries; their conditions need not be identical. Equal values may be shown once. Calls of active or inactive are those of the source.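 The calls were made as follows: active = compounds giving half or more protection of infected cells from virus-caused growth loss, again on retest; inactive = the rest.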

The experiment has as its system CEM cells HIV-1 protection, formazan growth assay. Kind of experiment: NCI AIDS Antiviral Assay. To be noted: for pIC50: measured here: growth of uninfected CEM cells. A digest of the protocol:
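Human CEM cells, uninfected and HIV-1-infected, exposed to five drug concentrations; growth measured by soluble formazan assay and scored as percent protection from infection, with protecting compounds retested.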

As a reminder, the pEC50 is −log10 of the EC50, conventionally taken in molar units. One may read the pIC50 as the negative decadic logarithm of the IC50, by convention in mol/L. Higher therefore signals a small IC50.

Turning to `C/C(CC(=O)Nc1ccc(NC(=O)/C(C)=N/NS(=O)(=O)c2ccc(C)cc2)cc1)=N\NS(=O)(=O)c1ccc(C)cc1`, the pEC50 is below 3.80 and the negative logarithm of the IC50 (pIC50) is below 3.80.
For the compound `O=C1OCCN1N1C(=O)CC2(CCN(Cc3ccccc3)CC2)C1=O`, the pEC50 was below 3.70 and the pIC50 is below 3.70.
For the compound `Cc1c(C)c2ccc(OCC(O)COC(C)C)c(C)c2oc1=O` (stereo unspecified), the pEC50 was below 3.70 and the pIC50 was 4.49.
For `N#CCCN(c1ccc(/C=N/c2nc(-c3ccccc3)cs2)cc1)S(=O)(=O)c1ccccc1`, in that order: below 4.26 and below 4.26.
For `Cc1ccc(C2NC(=O)N3C(c4ccc(C)cc4)NC(=O)N23)cc1` (stereo unspecified), in that order: below 3.70 and 4.52.
For `CCC(C=O)P1(=O)OC(C)(C)CN1C(C)(C)C` (stereo unspecified), the pEC50 is below 3.70 and the pIC50 is 4.19.
`CC(NC(=O)C(NC(=O)C(NC(=O)C(F)(F)F)C(C)C)C(C)C)C(=O)Oc1c(Cl)c(Cl)c(Cl)c(Cl)c1Cl` (stereo unspecified): the pEC50 was below 3.70 and the pIC50 was 3.85.
On the same counts, the results for `CC(C)C1=CC(=O)C(C)(C2=NC(C)(C)CO2)c2ccccc21` (stereo unspecified) are below 3.36 and below 3.36.
For the compound `Cc1c(C(=O)O)oc2ccc([N+](=O)[O-])cc12`, the outcome was inactive.
With `O=C(c1ccccc1)C1N=NN(Cc2ccccc2[N+](=O)[O-])C1C(=O)c1ccccc1` (stereo unspecified), the pEC50 was below 5.32 and the pIC50 was below 5.32.
For the compound `COc1cc(-c2[o+]c3cc(O)cc(O)c3cc2O)cc(O)c1O`, the pEC50 is below 3.70 and the pIC50 was 4.82.
Take `O=C1CCC2(CC(Br)C(=O)c3ccccc32)C(=O)N1` (stereo unspecified): the pEC50 is below 3.39 and the pIC50 was 4.09.
On the same counts, the results for `C/C(CC(=O)Nc1ccc(C)c(C)c1)=N\NC(N)=O` are below 3.16 and below 3.16.
On the same counts, the results for `CN1CCCCC1CCN1c2ccccc2Sc2ccc(S(C)=O)cc21` (stereo unspecified) are 3.78 and 3.66.
On the same counts, the results for `CC(C)(C)[Si](C)(C)OCCC1CC2(S(=O)(=O)C3=CC=C=C=C3)ON1CC2S(=O)(=O)c1ccccc1` (stereo unspecified) are below 4.45 and below 4.45.
With `CN1CCc2sccc2C(c2ccccc2)O1` (stereo unspecified), the pEC50 is below 3.15 and the negative-log IC50 (pIC50) was 3.56.
On the same counts, the results for `CC(O)C1(CNc2cc(Cl)nc(N)n2)CCCCC1` (stereo unspecified) are below 3.70 and 4.07.
For `Cn1c(N)nc(-c2ccc(Cl)cc2)c1SSc1c(-c2ccc(Cl)cc2)nc(N)n1C`, in that order: below 3.70 and below 3.70.
`CCCCCCCCCCCCCC(=O)NCO`: the result was inactive.
On to `COC(=O)CC12CC(CC(=O)O1)N(C(=O)Nc1ccccc1)O2` (stereo unspecified), for which the pEC50 is below 4.11 and the pIC50 is below 4.11.
As for `CN(C)CC(NC(NCS)C(=O)NCCNc1ccc(NCCNC(=O)C(NCS)NC(CN(C)C)OCCl)c2c1C(=O)c1c(O)ccc(O)c1C2=O)OCCl` (stereo unspecified), the pEC50 was below 7.30 and the negative-log IC50 (pIC50) was 7.74.
On the same counts, the results for `Cc1c(Cl)cccc1NC(=O)CC1C(=O)Nc2ccccc2S1(=O)=O` (stereo unspecified) are below 5.28 and below 5.28.
For `CCOC(=O)C(=O)C1C(=O)Nc2ccccc21` (stereo unspecified), in that order: below 3.40 and 3.69.
As to `Oc1cc(Br)cc2cc(Cl)cnc12`, the pEC50 was below 3.70 and the pIC50 is 5.99.
Turning to `C=C1C(=O)OC2CC(C)C(/C=C/C(C)=O)=CCC12` (stereo unspecified), the pEC50 was below 3.44 and the negative-log IC50 (pIC50) is 4.25.
For `CCN(CC(O)COc1ccc2c(c1)[n+]([O-])nc(N)[n+]2[O-])C(C)=O` (stereo unspecified), in that order: below 3.70 and 4.63.
With `COC(=O)C(CC12CC3CC(CC(C3)C1)C2)NC(=O)C(N)CC(=O)O` (stereo unspecified), the pEC50 is below 3.70 and the pIC50 was below 3.70.
On to `CO/N=C/c1cc(OC)c(OC)c(OC)c1`, for which the pEC50 was below 3.09 and the pIC50 is below 3.09.
Consider `CCCC1C/C=C/C=C/C=C/C=C/C(OC2OC(C)C(O)C(N)C2O)CC(O)C(C(=O)O)C(O)CC(=O)CC(O)CCCC(=O)CC(O)C(CC)C(=O)O1` (stereo unspecified), for which the result was inactive.
With `COc1nc(N)c(NC2OC(CO)C(O)C2O)c(=O)[nH]1` (stereo unspecified), the pEC50 was below 3.70; the pIC50 is 3.95 and 3.90.
With `COC1(OC)c2no[n+]([O-])c2C(OC)(OC)c2c1no[n+]2[O-]`, the pEC50 is below 3.70 and the pIC50 was 5.41.
For `C=CCCCN(C(=O)c1ccccc1)c1ccc(C(=O)OC)o1`, in that order: below 3.70 and 4.30.
For `CC(=O)N1C(c2[nH]c3ccccc3c2-c2ccccc2)CCN1c1ccccc1` (stereo unspecified), in that order: below 3.70 and 4.13.
On the same counts, the results for `CC1=CC(=O)N(c2c(C)cccc2Cl)C(C)N1` (stereo unspecified) are below 3.00 and below 3.00.
For the compound `O=C(CSc1nc(-c2ccccc2)c(-c2ccccc2)[nH]1)N/N=C/c1ccc(O)cc1`, the pEC50 is below 4.36 and the pIC50 is 5.01.
On the same counts, the results for `CCOC(=O)CSc1[nH]c(NC(=S)Nc2ccccc2)c(C(N)=O)c1C(N)=O` are below 3.70 and 4.01.
For `Cc1ccc(NC(=O)CC(=O)n2nc(C)c(N=Nc3ccc(S(=O)(=O)CCOS(=O)(=O)O)cc3)c2C)cc1`, in that order: below 3.70 and below 3.70.
For the compound `Cc1cc(NC(=O)NC(=O)c2ccccc2[N+](=O)[O-])ccc1Oc1ncc(Cl)cn1`, the result was inactive.
Consider `CCC1(O)CCCC2C3CCC4CC(=O)CCC4(C)C3C(=O)CC21C` (stereo unspecified), for which the pEC50 is below 3.70 and the pIC50 was 3.98.
On the same counts, the results for `CCOC(=O)C1Cc2c([nH]c(=O)[nH]c2=O)OC1(C)c1ccccc1` (stereo unspecified) are below 3.70 and below 3.70.
On the same counts, the results for `CCc1n[nH]c(=O)n1NC(=O)CCCC(=O)O` are below 3.70 and below 3.70.
On the same counts, the results for `CCC1(c2ccccc2)Oc2ccccc2-n2cccc2C1=O` (stereo unspecified) are 5.75 and 5.30.
`CCOC(=O)Cc1ccc(-c2cn3c(n2)sc2ccccc23)cc1`: the pEC50 was below 3.70 and the negative logarithm of the IC50 (pIC50) is below 3.70.
Consider `O=S(=O)(O)c1cc(N=Cc2cc(S(=O)(=O)O)c3cccnc3c2O)ccc1/C=C\c1ccc(N=Cc2cc(S(=O)(=O)O)c3cccnc3c2O)cc1S(=O)(=O)O`, for which the pEC50 was below 4.41 and the pIC50 is below 4.41.
As to `COC1=NC2=CC(=O)c3c(c(O)c(C)c4c3C(=O)C(C)(O/C=C/C(OC)C(C)C(OC(C)=O)C(C)C(O)C(C)C(O)C(C)/C=C/C=C\1C)O4)C2=O` (stereo unspecified), the pEC50 is below 3.70 and the pIC50 is 4.48.
For the compound `CCCCSC(=CC(=O)c1cccc(C(=O)C=C(SCCCC)SCCCC)n1)SCCCC`, the pEC50 is below 5.43 and the negative-log IC50 (pIC50) was below 5.43.
Turning to `CC(=O)Nc1ccc2cc(C)c(=O)[nH]c2n1`, the pEC50 was below 3.70 and the pIC50 was below 3.70.
With `CCN(CC)c1ccc(/C=C2\CCc3ccc([N+](=O)[O-])cc3C2=O)cc1`, the pEC50 is below 4.70 and the pIC50 is 5.97.
On the same counts, the results for `CC1=C/C(=N\OCC(=O)O)CC(c2ccc(C(C)C)cc2)C1` (stereo unspecified) are below 3.70 and 4.01.
In the case of `COC(=O)NC1(NC(=O)OC)NC(=O)c2cc(OC)c(OC)c(OC)c2N1`, the pEC50 is below 3.70 and the negative logarithm of the IC50 (pIC50) is 5.00.
